Test results as given in US6060608A, “Analogs of CC-1065 and the duocarmycins” (The Scripps Research Institute, priority 1999, dated 2000).

Experiments:
[1] = tested on: w794 duplex DNA; experiment: DNA alkylation selectivity and efficiency within w794 DNA, thermally-induced strand cleavage and PAGE; type: biochemical, SV40
Summary of the method: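 5′-32P end-labeled w794 duplex DNA in TE buffer (pH 7.2–7.5) incubated with agent in DMSO across concentrations, 4–37 °C for 24–76 h depending on agent. Unbound agent removed by EtOH precipitation; thermolysis 100 °C, 30 min cleaves alkylation sites, mapped by denaturing 8% PAGE beside Sanger standards and autoradiography.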

[2] = Solvolysis regioselectivity (acid-catalyzed nucleophilic addition to the cyclopropane); type: physicochemical; conditions: C9 addition versus ring expansion
Description: Solvolysis: Reactivity. Two fundamental characteristics of the alkylation subunits have proven important in the studies to date. The first is the stereoelectronically-controlled acid-catalyzed ring-opening of the cyclopropane which dictates preferential addition of a nucleophile to the least substituted cyclopropane carbon. With the CBI series of modified alkylation subunits where this stereoelectronic alignment of the C8b-C9 bond is nearly optimized, exclusive (≥20:1) addition to the C9 center with cleavage of the C8b-C9 bond is observed. […] Thus, the impact of the difluorocyclopropane substitution on the reactivity and reaction regioselectivity of CBI was examined.
Solvolysis: Regioselectivity. Treatment of both 217 and 219 with catalytic CF3 SO3 H (0.1 equiv) in CH3 OH (0° C.) rapidly and cleanly provided a single characterizable product 225 (30 min, 90%) or 226 (10 min, 79%), FIG. 33. […] Furthermore, the ^1 H-^13 C HMBC NMR spectrum of 226 established the carbon-carbon connectivity of C1 (δ51.0) with the CF2 carbon (δ50.3, t) and C9b (δ125.0). No connectivity between the key CF2 carbon (δ50.3, t) and […] was detected as required of the ring expansion regioisomer. This was unambiguously established by conducting the solvolysis in THF-H2 O catalyzed by CF3 SO3 H (0.12 equiv) which cleanly provided 227 (18 h, 85%), FIG. 33. […]

[3] = tested on: L1210; experiment: In vitro cytotoxic activity, L1210; conditions: N-BOC derivatives
[4] = natural enantiomers, 37° C., 72 h

With `CC(C)(C)OC(=O)N1CC2CC23C1=CC(=O)c1ccc(C#N)cc13` (stereo not shown) [compound 25, N-(tert-Butyloxycarbonyl)-7-cyano-1,2,9,9a-tetrahydrocyclopropa[c]benz[e]indol-4-one] the “DNA alkylation sequence selectivity” value [1] was 5'-AA>5'-TA, the “concentration providing detectable DNA alkylation” value ([1]; both enantiomers, 37° C., 24-72 h) was 10^-2 to 10^-3 M and the “concentration at which DNA alkylation is detectable” value [1, 4] was 10^-3 M. For the same compound, the “concentration at which DNA alkylation is prominent” value [1, 4] was 10^-2 M, the “DNA alkylation less efficient than 34-39” value ([1]; two enantiomers of 25) was 10^4 × and the “solvolysis regioselectivity, addition to the least substituted or C9 cyclopropane carbon” value [2] was “nucleophilic addition to the least substituted carbon of the activated cyclopropane was observed exclusively”. The “relative cytotoxic potency of natural versus unnatural enantiomers” value [3] was 4 ×.
